The text below walks through data of publication PMC7641581, “Cannabidiol interactions with voltage-gated sodium channels” (eLife, 2020).

The target in assay [1] is T1, NavMs voltage-gated sodium channel (Magnetococcus marinus, UniProt A0L5S6).
T1 construct: gene Mmc1_0798; wild-type NavMs α-subunit in CHO-K1 cells, co-transfected with β1-subunit and eGFP
T1 sequence (A0L5S6 1-274): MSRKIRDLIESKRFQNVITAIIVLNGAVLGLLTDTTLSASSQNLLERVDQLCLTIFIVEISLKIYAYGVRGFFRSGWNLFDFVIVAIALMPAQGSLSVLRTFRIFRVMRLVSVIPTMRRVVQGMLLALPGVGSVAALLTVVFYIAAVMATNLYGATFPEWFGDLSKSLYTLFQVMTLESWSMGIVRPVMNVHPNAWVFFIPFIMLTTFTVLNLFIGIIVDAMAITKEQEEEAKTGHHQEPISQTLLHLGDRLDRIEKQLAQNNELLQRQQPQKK
The assay can be described thus: whole-cell voltage-clamp of transfected CHO-K1 cells. It is filed as cell-based.

Assay [2] has as its target T2, NavMs voltage-gated sodium channel (Magnetococcus marinus, UniProt A0L5S6, T207A).
T2 construct: gene Mmc1_0798; T207A NavMs α-subunit in CHO-K1 cells, co-transfected with β1-subunit and eGFP
T2 sequence (A0L5S6 1-274 T207A): T1 sequence (A0L5S6 1-274) with T207A
As to the kind of experiment: whole-cell voltage-clamp, block at […] CBD. In kind it is cell-based.

Positions count from the first letter of the chain named.

A word on the IC50: it is the concentration that inhibits the measured activity by half. The low end stands for greater potency, the high end for weaker potency. `C=C(C)[C@@H]1CCC(C)=C[C@H]1c1c(O)cc(CCCCC)cc1O` [Cannabidiol]: 17.8 ± 0.5 µM corresponded to half-maximal inhibition in assay [1] (IC50). Besides, the “whole-cell voltage-clamp, block at 10 μM CBD” value in assay [2] is reported as “The mutation of the threonine side chain to a smaller alanine side chain results in a modest reduction in the CBD block”.
